Values belong to the compound of their own block, whether it stands above or below them.
Legend:
Plasmepsin V = Plasmepsin V (Plasmodium vivax, UniProt A0A0H4FQ60); assay: Inhibition of recombinant Plasmodium vivax Plasmepsin V
[1] = target: cGMP-dependent protein kinase (Plasmodium falciparum, UniProt W7JX98); assay: Inhibition of Plasmodium falciparum NF54 PKG
[2] = Inhibition of Plasmodium falciparum 3D7 EF2

cGMP-dependent protein kinase, sequence (W7JX98 whole entry): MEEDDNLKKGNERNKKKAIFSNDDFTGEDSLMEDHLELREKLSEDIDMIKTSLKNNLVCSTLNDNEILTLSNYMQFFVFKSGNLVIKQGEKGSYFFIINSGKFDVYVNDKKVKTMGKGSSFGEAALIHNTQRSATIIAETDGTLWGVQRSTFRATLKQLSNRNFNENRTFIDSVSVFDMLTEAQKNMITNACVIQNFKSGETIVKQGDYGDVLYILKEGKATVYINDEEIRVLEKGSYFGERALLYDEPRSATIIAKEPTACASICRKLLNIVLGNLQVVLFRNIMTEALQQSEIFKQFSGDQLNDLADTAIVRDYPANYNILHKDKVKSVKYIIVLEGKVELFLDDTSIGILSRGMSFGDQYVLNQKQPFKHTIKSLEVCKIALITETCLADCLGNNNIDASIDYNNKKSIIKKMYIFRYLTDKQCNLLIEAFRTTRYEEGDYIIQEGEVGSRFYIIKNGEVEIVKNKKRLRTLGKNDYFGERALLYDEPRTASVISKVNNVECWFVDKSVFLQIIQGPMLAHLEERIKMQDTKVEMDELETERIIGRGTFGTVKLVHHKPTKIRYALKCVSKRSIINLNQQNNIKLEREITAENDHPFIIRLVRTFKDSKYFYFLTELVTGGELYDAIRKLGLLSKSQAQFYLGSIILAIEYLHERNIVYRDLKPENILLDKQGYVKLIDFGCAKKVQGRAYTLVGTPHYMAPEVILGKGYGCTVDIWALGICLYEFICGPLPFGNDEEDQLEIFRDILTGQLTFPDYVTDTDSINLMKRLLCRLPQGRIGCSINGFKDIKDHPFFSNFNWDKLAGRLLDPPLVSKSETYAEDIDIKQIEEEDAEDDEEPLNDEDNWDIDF
Plasmepsin V, sequence (A0A0H4FQ60 whole entry): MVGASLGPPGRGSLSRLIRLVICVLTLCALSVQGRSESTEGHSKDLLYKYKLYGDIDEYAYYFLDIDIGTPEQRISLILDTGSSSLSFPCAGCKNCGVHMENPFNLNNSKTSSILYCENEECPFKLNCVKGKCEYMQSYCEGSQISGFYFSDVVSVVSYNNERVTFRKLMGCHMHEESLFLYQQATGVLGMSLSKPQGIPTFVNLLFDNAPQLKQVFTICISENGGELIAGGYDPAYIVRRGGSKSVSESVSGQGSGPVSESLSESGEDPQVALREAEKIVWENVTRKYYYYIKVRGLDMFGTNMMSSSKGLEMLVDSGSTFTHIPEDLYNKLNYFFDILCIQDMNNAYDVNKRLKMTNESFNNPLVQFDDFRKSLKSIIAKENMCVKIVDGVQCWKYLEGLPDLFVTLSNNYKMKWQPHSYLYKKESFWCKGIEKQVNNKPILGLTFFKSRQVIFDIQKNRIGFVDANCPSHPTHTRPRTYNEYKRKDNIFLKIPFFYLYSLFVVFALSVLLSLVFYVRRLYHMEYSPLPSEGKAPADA

IC50 (Plasmepsin V): 0.2 nM
Structure (SMILES): CC(C)C[C@H](NC(=O)[C@@H](NC(=O)[C@H](CCONC(=N)N)NC(=O)OCc1ccccc1)C(C)C)[C@@H](O)CC(=O)NCCc1ccccc1

IC50 [1]: 0.16 nM
Structure (SMILES): CN(C)Cc1ccn2c(-c3ccnc(NCC4CC4)n3)c(-c3ccc(F)c(NS(C)(=O)=O)c3)nc2c1

IC50 [2]: 2 nM
Structure (SMILES): O=C(NCCN1CCCC1)c1cc(-c2ccc(CN3CCOCC3)cc2)nc2ccc(F)cc12 [CABAMIQUINE]

From ChEMBL document CHEMBL5537173, “Emerging Drug Targets for Antimalarial Drug Discovery: Validation and Insights into Molecular Mechanisms of Function” (J Med Chem, 2024)
